{"source": "patent US20250017881A1", "about": "“Fatty acids for ketosis control” (N.V. Nutricia, priority 2022, published 2025)", "format_in_all_cases": "cell-based", "key": {"[1]": {"system": "mouse liver cells (Hepa1-6 cell line)", "assay": "Ketone production (beta-hydroxybutyrate in medium) by mouse liver cells", "details": "for beta-hydroxybutyrate production, fatty acid provided alone: provided alone to liver cells at 1 μM, 5 μM and 10 μM, 6 h ketogenic phase; for beta-hydroxybutyrate production when combined with 100 μM OA, versus 100 μM OA alone: test fatty acid 1 μM to 10 μM (1, 5, 10 μM) + 100 μM oleic acid; for production of ketones from 100 μM fatty acid blend (K-one): test fatty acid within 1 μM to 10 μM + 100 μM fatty acid blend; for ketone production in the absence of a ketogenic fat blend: 5 μM each, alone or in combination", "procedure": "An assay to measure ketone production in mouse liver cells (Hepa1-6 cell line) was used wherein cells were first grown to a monolayer (growth phase), then exposed to starvation to deplete cellular lipid stores and subsequently brought into a ketogenic phase wherein cells were cultured in presence of oleic acid or a ketogenic diet fat blend with or without the presence of one of C2, C4, C6 fatty acids, citrate and nicotinamide riboside (herein also referred to as C2, C4, C6, citrate and NR). The ketone body production was subsequently determined by measurement of beta-hydroxybutyrate in the cell culture medium according to the details set out below:\nStarvation phase: At the end of the growth phase the cells formed a monolayer. The medium was exchanged for DMEM containing 1 mM glucose and antibiotics (1% penicillin & streptomycin) but no FBS. The medium was further supplemented with L-carnitine (a required co-factor for the uptake of fatty acids into the mitochondria, where fatty acids are turned into ketones). The cells were incubated in this medium for 24 hours. During this time, the cells were vastly deprived of glucose, lipids and hormones contained in FBS, forcing them to consume and empty their lipid stores. […] Moreover, the starvation phase is thought to induce specific metabolic changes that maximize the production of ketones.\nKetogenic phase: At the end of the starvation phase, the medium was exchanged for Krebs-Henseleit buffer (KHB) supplemented with the test nutrients (single fatty acids and fatty acid blend shown in table 1) and L-carnitine.\nThe fatty acid blend is contained in a similar fatty acid composition to the one used in a ketogenic diet (K-one). The content of every fatty acid in the blend is given as the molar ratio to Oleic acid (OA), whose molar content is set to 1. Dilutions of this blend were used to determine the dose response curve in FIGS. 1B and 1D. C2 and C4 are not included in the blend.\nKHB is composed of salts and bicarbonate as a chemical buffer to maintain the osmotic pressure and acidity (pH) at physiological levels. Medium and long chain fatty acids are coupled to bovine serum albumin prior to the assay to make them soluble in KHB and allow their efficient uptake by the cells. The coupling is physiological since in humans, medium and long chain fatty acids are also normally coupled to albumin for transport in the blood circulation. Short chain fatty acids (C2, C4) were not coupled to albumin in the assay since they are water-soluble and circulate freely in humans. The cells were incubated for 6 hours at 37° C. During this time, they produce ketones from the test nutrients with little to no interference from other nutrients and secrete β-hydroxybutyrate (β-Hb) into the medium.\nβ-Hb measurements: At the end of the ketogenic phase, the whole medium was collected and dried by vacuum centrifugation for 20 hours at 21° C. The dry pellet was resuspended in a small volume of assay buffer to yield a 10-20-fold higher β-Hb concentration than in the medium. The samples were deproteinized using spin columns to measure the free unbound fraction of R-Hb. […] The Fluorescence was measured on a fluorescence microplate reader and is directly proportional to the β-Hb concentration in the sample within a range of 0.1 μM to 50 μM β-Hb."}, "[2]": {"system": "mouse liver cells (Hepa1-6 cell line)", "assay": "Propionate viability assay (ATP content, bioluminescence)", "procedure": "Starvation phase: At the end of the growth phase the cells formed a monolayer. The medium was exchanged for DMEM containing 1 mM glucose and antibiotics (1% penicillin & streptomycin) but no FBS. The medium was further supplemented with L-carnitine (a required co-factor for the uptake of fatty acids into the mitochondria, where fatty acids are turned into ketones). […] The cells were incubated in this medium for 24 hours."}, "[3]": {"system": "NAD+ depleted mouse liver cells (Hepa1-6 cells)", "assay": "NAD+ replenishment of NAD+ depleted liver cells by NAD+ precursors", "procedure": "An assay was developed to measure NAD+ replenishment of NAD+ depleted mouse liver cells (Hepa1-6 cells) by NAD+ precursors under ketogenic diet-like conditions. In this assay, mouse liver cells were starved of glucose and depleted of NAD+ through incubation in a very low glucose (1 mM) medium free of vitamin B3, Trp and FBS and supplemented with 10 nM of an NAD+ depleting drug called FK866. Thereafter, the cells were fed with NR or NAM or Niacin (provided as a combination of NAM and nicotinic acid in a 1:1 molar ratio) or Trp to replenish the cells with NAD+. At the end of the supplementation phase, the cells were scraped and extracted using the NAD+ extraction buffer of the EnzyChrom™ NAD/NADH Assay Kit from BioAssay Systems. The NAD+ content of the cells was determined with the same kit following the manufacturer's manual. The NAD+ measurement is based on a […] reaction, in which NAD+ is reduced to NADH, which in turn reduces a formazan (MTT) reagent. The intensity of the reduced product color, measured at 565 nm, is proportional to the NAD+ concentration in the sample. This assay is highly specific for NAD+ and has minimal interference (<1%) by NADP+ or NADPH."}, "[4]": {"system": "NAD+ depleted mouse liver cells", "assay": "Ketone production of NAD+ depleted liver cells replenished with NR", "details": "NR 10 μM", "procedure": "To measure the impact of replenishing NAD+ in liver cells with NR on ketone production, mouse liver cells were nutrient-deprived in medium containing low (1 mM) glucose and L-carnitine, but no fetal bovine serum, and no NAD+ precursors in the form of vitamin B3 (Niacin, NA, NAM) or Trp, Concomitantly the cells were treated with the NAD+ depleting drug FK866. These conditions created ketogenic diet like nutrient conditions and depleted the cells of NAD+. After 18 hours of incubation, FK866 was removed from the medium and a concentration range of NR was added to replenish NAD+ in liver cells. After 24 hours, the cells were switched to Krebs-Henseleit buffer (KHB) containing L-carnitine and a concentration range (1 μM to 100 μM) of oleic acid, a long chain fatty acid, for 6 hours to induce and measure the production and secretion of b-hydroxybutyrate (PHB) into the medium."}}, "note": "“Also recorded” adds a separate entry of the source."}
{"molecule": "CC(=O)O", "note": "[C2, acetic acid]", "values": [{"measurement": "beta-hydroxybutyrate production when combined with 100 μM fatty acid blend, versus blend alone", "setting": "[1]; 1 μM or 10 μM C2 + 100 μM fatty acid blend (K-one)", "result": "slightly greater production of PHb"}, {"measurement": "beta-hydroxybutyrate production, fatty acid provided alone", "setting": "[1]", "result": "does not yield any ketones"}, {"measurement": "beta-hydroxybutyrate production, fatty acid provided alone", "setting": "[1]; listed as 02", "result": "virtually no bHB"}, {"measurement": "beta-hydroxybutyrate production when combined with 100 μM OA, versus 100 μM OA alone", "setting": "[1]", "result": "more PHb than 100 μM OA alone; also recorded: enhances the production of ketones"}, {"measurement": "production of ketones from 100 μM fatty acid blend (K-one)", "setting": "[1]", "result": "enhances the production of ketones"}]}
{"molecule": "CCC(=O)O", "note": "[C3, propionic acid]", "values": [{"measurement": "reduction of beta-hydroxybutyrate yield compared to 100 μM fatty acid blend alone", "setting": "[1]; 1 μM, 5 μM and 10 μM C3 + 100 μM fatty acid blend", "result": "more than 60%"}, {"measurement": "beta-hydroxybutyrate production, fatty acid provided alone", "setting": "[1]", "result": "yielded no PHb"}, {"measurement": "beta-hydroxybutyrate production when combined with 100 μM OA, versus 100 μM OA alone", "setting": "[1]", "result": "less PHb than 100 μM OA alone; also recorded: inhibits the top-level production of ketones"}, {"measurement": "production of ketones from 100 μM fatty acid blend (K-one)", "setting": "[1]", "result": "dose-dependent manner; also recorded: inhibits the top-level production of ketones"}, {"measurement": "cytotoxicity, long-term assessment", "setting": "[2]; 300 uM to 10 mM C3, 24-hour starvation plus 6-hour ketogenic phase", "result": "evident for the entire dose-range"}, {"measurement": "cytotoxicity, short-term exposure", "setting": "[2]; 10 mM C3, 6-hours of exposure (ketogenic phase)", "result": "Cytotoxicity was already noted"}, {"measurement": "cytotoxicity (ATP content) over the concentration range", "setting": "[2]; C3 to 10 mM as printed", "result": "dose-dependent increase in cytotoxicity"}]}
{"molecule": "CCCC(=O)O", "note": "[C4, butyric acid]", "values": [{"measurement": "ketone production in the absence of a ketogenic fat blend", "setting": "[1]; no fat blend", "result": "hardly any ketones"}, {"measurement": "beta-hydroxybutyrate production when combined with 100 μM fatty acid blend, versus blend alone", "setting": "[1]; 10 μM C4 + 100 μM fatty acid blend (K-one)", "result": "more βHb than providing the 100 μM fatty acid blend alone"}, {"measurement": "ketone production from a concentration range of fatty acid blend", "setting": "[1]; fixed 10 μM C4 + 1 μM to 100 μM fatty acid blend (K-one), versus blend without C4", "result": "increasingly enhanced the production of ketones"}, {"measurement": "beta-hydroxybutyrate production, fatty acid provided alone", "setting": "[1]", "result": "hardly yielded any PHb"}, {"measurement": "beta-hydroxybutyrate production when combined with 100 μM OA, versus 100 μM OA alone", "setting": "[1]", "result": "more PHb than providing 100 μM OA alone; also recorded: potentiates the production of ketones"}, {"measurement": "production of ketones from 100 μM fatty acid blend (K-one)", "setting": "[1]", "result": "potentiates the production of ketones"}]}
{"molecule": "CCCCCC(=O)O", "note": "[C6, caproic acid]", "values": [{"measurement": "ketone production in the absence of a ketogenic fat blend", "setting": "[1]; no fat blend", "result": "hardly any ketones"}, {"measurement": "concentration above which the fatty acid starts to be turned as a substrate into beta-hydroxybutyrate", "setting": "[1]; dose-response curve of the fatty acid alone, 1 μM to 100 μM", "result": "above 10 μM"}, {"measurement": "beta-hydroxybutyrate production when combined with 100 μM OA, versus 100 μM OA alone", "setting": "[1]", "result": "potentiates the production of ketones"}, {"measurement": "production of ketones from 100 μM fatty acid blend (K-one)", "setting": "[1]", "result": "potentiates the production of ketones"}]}
{"molecule": "O=C(/C=C/c1cccnc1)NCCCCC1CCN(C(=O)c2ccccc2)CC1", "note": "[FK866, reference compound]", "values": [{"measurement": "depletion of NAD+ relative to baseline NAD+ content of untreated liver cells", "setting": "[3]; 10 nM FK866, very low glucose medium", "result": "~70", "unit": "%"}]}
{"molecule": "NC(=O)c1ccc[n+]([C@@H]2O[C@H](CO)[C@@H](O)[C@H]2O)c1", "note": "[NR, nicotinamide riboside]", "values": [{"measurement": "increase of NAD+ content versus equimolar amounts of NAM or Niacin", "setting": "[3]; 1 mM", "result": "significantly greater extent"}, {"measurement": "increase of NAD+ content versus equimolar amounts of Niacin", "setting": "[3]; lower concentrations below 150 μM", "result": "greater extent"}, {"measurement": "NAD+ content of NAD+ depleted liver cells after provision", "setting": "[3]; within 24 hours of treatment, concentration range", "result": "dose-dependently replenishes NAD+ content to and above this baseline"}, {"measurement": "top-level production of ketones", "setting": "[4]; 150 μM and 1000 μM for 24 h, then oleic acid 1 μM to 100 μM for 6 h", "result": "increased"}, {"measurement": "NAD+ content", "setting": "[4]; 150 μM and 1000 μM, ketogenic diet like nutrient conditions", "result": "increased"}]}
{"molecule": "CCCCCCCC/C=C\\CCCCCCCC(=O)O", "note": "[OA, oleic acid, reference compound]", "values": [{"measurement": "concentration at which top-level (maximized) ketone production is achieved", "setting": "[1]; ketogenic substrate alone, dose-response curve", "result": 100, "unit": "µM"}]}
{"molecule": "O=C(O)CC(O)(CC(=O)O)C(=O)O", "note": "[citrate]", "values": [{"measurement": "increase of ketone production from the fat blend", "setting": "[1]; 200 μM to 1000 μM citrate + 100 μM fatty acid blend (K-one)", "result": "10-20%"}, {"measurement": "ketone production, citrate provided alone", "setting": "[1]; citrate alone, no fat blend", "result": "yielded no ketones"}]}
